Assay results reported in US9434725B2, “5-azaindazole compounds and methods of use” (priority 2012, dated 2016).
Counter-ions that a name gives are not always drawn. Like-named read-outs stand apart in the source and are kept apart here.

Assays:
[1] = target: PIM1 (Homo sapiens (Human), UniProt P11309); test: biochemical; assay type: biochemical; conditions: 10 μM ATP, 90 min, room temperature; read-out: PIM1 LC3K (KI)
Procedure, shortened: (§1)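 Pim-specific fluorescent peptide phosphorylated in 10 mM HEPES pH 7.2, 10 mM MgCl2, 0.01% Tween 20, 2 mM DTT for 90 min at room temperature, then stopped with EDTA. Product and substrate separated by microfluidic mobility shift; Ki derived from substrate conversion.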

[2] = target: PIM2 (Homo sapiens (Human), UniProt Q9P1W9); test: Pim kinase binding activity, Caliper LC3000 microfluidic peptide phosphorylation assay, PIM2; assay type: biochemical; conditions: 10 μM ATP, 90 min, room temperature; read-out: PIM2 LC3K (KI)
Procedure, shortened: as §1

[3] = target: PIM3 (Homo sapiens (Human), UniProt Q86V86); test: Pim kinase binding activity, Caliper LC3000 microfluidic peptide phosphorylation assay, PIM3; assay type: biochemical; conditions: 10 μM ATP, 90 min, room temperature; read-out: PIM3 LC3K (KI)
Procedure, shortened: as §1

[4] = tested on: BaF3 PIM1 cells; test: In vitro cell proliferation potency assay (Cell Titer Glo), BaF3 PIM1 cells; assay type: cell-based, murine; conditions: read-out: Prolif BaF3_PIM 1 (IC50)
Method: BaF3 parental line was obtained from the DSMZ repository. BaF3 lines transfected with PIM1 or PIM2 were generated. Mouse IL-3 was purchased from R&D Systems. G418 was purchased from Clontech. Media for BaF3 parental line contained RPMI, 10% FBS, 2 mM L-Glutamine, 2 ng/mL mIL-3. Media for BaF3 PIM1 & 2 lines contained RPMI, 10% FBS, 2 mM L-Glutamine, […]. Media for MM1.S (multiple myeloma cells) line contained RPMI, 10% FBS, 2 mM L-Glutamine.
BaF3, a murine interleukin-3 dependent pro-B cell line, parental cells, BaF3 PIM1 cells, BaF3 PIM2 cells, and MM1.S (multiple myeloma) cells were seeded at 2 k/well, 5 k/well, 5 k/well, and 10 k/well respectively, in a 384-well plate, at 45 μL/well. Test compound was added at 5 μL/well. BaF3 cells (parental and transfected) were incubated overnight, while MM1.S cells were incubated for 72 hours at 37° C., 5% CO2. CELL TITER GLO® Reagent (Promega) was added at 50 μL/well, the plates were incubated for 30 minutes, and their luminescence read on an HT Analyst. IC50/EC50 values for the test compound were calculated.

[5] = Mus musculus, BaF3, BaF3 cells transfected with PIM1, incubated overnight

PIM1, sequence (P11309 whole entry): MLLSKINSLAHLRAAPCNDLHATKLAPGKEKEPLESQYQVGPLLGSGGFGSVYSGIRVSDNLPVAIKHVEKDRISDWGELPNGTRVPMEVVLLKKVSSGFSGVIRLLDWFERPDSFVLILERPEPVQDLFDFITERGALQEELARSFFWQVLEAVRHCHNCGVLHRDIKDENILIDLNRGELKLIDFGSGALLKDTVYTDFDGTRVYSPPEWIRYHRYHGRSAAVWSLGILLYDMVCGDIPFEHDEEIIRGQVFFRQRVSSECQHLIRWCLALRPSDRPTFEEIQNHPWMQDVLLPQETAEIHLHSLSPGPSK
PIM2, sequence (Q9P1W9 whole entry): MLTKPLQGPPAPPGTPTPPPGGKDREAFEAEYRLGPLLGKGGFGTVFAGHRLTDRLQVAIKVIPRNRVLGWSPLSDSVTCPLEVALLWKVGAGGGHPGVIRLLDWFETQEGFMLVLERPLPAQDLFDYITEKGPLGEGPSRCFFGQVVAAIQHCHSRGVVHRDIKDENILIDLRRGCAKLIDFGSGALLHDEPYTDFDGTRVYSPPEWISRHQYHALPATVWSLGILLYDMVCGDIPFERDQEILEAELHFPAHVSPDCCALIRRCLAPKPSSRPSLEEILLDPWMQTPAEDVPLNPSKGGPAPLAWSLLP

Structure (SMILES) | Ki [1] [nM] | Ki [2] [nM] | Ki [3] [nM] | IC50 ([4]; BaF3 cells transfected with PIM1, incubated overnight) [nM] | IC50 [4, 5] [nM]
Cc1cncc(-c2cc3c(cn2)cnn3-c2cccc(N3CCNC(C)C3)n2)n1 (single isomer, unassigned) [Compound 193, 1-[6-(3-methylpiperazin-1-yl)-2-pyridyl]-6-(6-methylpyrazin-2-yl)pyrazolo[4,3-c]pyridine] | 0.046 | 0.596 | 0.035 | 1200 | 
CCc1cncc(-c2cc3c(cn2)cnn3-c2cccc(N3CCNCC3)n2)c1 [Compound 104, 6-(5-ethylpyridin-3-yl)-1-(6-(piperazin-1-yl)pyridin-2-yl)-1H-pyrazolo[4,3-c]pyridine] | 0.119 |  | 0.077 |  | 1500
c1cc(N2CCNCC2)nc(-n2ncc3cnc(-c4cncs4)cc32)c1 [Compound 109, 5-[1-(6-piperazin-1-yl-2-pyridyl)pyrazolo[4,3-c]pyridin-6-yl]thiazole] | 0.476 | 4.03 | 0.285 |  | 1500
N[C@@H]1CCCN(c2cccc(-n3ncc4cnc(-c5cncs5)cc43)n2)C1 [Compound 110, (3R)-1-[6-(6-thiazol-5-ylpyrazolo[4,3-c]pyridin-1-yl)-2-pyridyl]piperidin-3-amine] | 0.504 | 4.5 | 0.37 |  | 1700
c1cc(N2CCCNCC2)nc(-n2ncc3cnc(-c4cncc(C5CC5)c4)cc32)c1 [Compound 112] | 0.038 | 3.87 | 0.093 |  | 490
CCc1cncc(-c2cc3c(cn2)cnn3-c2ccc(Cl)c(N3CCC[C@H](N)C3)n2)c1 [Compound 117, (S)-1-(3-chloro-6-(6-(5-ethylpyridin-3-yl)-1H-pyrazolo[4,3-c]pyridin-1-yl)pyridin-2-yl)piperidin-3-amine] | 0.141 | 1.03 | 0.098 |  | 2900
Cc1cc(-c2cc3c(cn2)cnn3-c2cccc(N3CCC[C@H](N)C3)n2)sn1 [Compound 124, (3S)-1-[6-[6-(3-methylisothiazol-5-yl)pyrazolo[4,3-c]pyridin-1-yl]-2-pyridyl]piperidin-3-amine] | 0.71 | 3.48 | 0.14 |  | 804
COc1cncc(-c2cc3c(cn2)cnn3-c2cccc(N3CCNCC3)n2)n1 [Compound 130, 6-(6-methoxypyrazin-2-yl)-1-(6-piperazin-1-yl-2-pyridyl)pyrazolo[4,3-c]pyridine] | 0.113 | 1.87 | 0.068 |  | 1500
CCn1cc(-c2cc3c(cn2)cnn3-c2cccc(N3CCC[C@H](N)C3)n2)cn1 [Compound 133, (3S)-1-[6-[6-(1-ethylpyrazol-4-yl)pyrazolo[4,3-c]pyridin-1-yl]-2-pyridyl]piperidin-3-amine] | 0.867 | 4.56 | 0.155 |  | 3000
Cc1cncc(-c2cc3c(cn2)cnn3-c2cccc(N3CCC[C@H](N)C3)n2)n1 [Compound 137, (3S)-1-[6-[6-(6-methylpyrazin-2-yl)pyrazolo[4,3-c]pyridin-1-yl]-2-pyridyl]piperidin-3-amine] | 0.159 | 0.499 | 0.038 |  | 2100
CC(C)(C)n1cc(-c2cc3c(cn2)cnn3-c2cccc(N3CCCNCC3)n2)cn1 [Compound 145, 1-(6-(1,4-Diazepan-1-yl)pyridin-2-yl)-6-(1-tert-butyl-1H-pyrazol-4-yl)-1H-pyrazolo[4,3-c]pyridine] | 0.362 | 10.5 | 0.636 |  | 2500
OCCn1cc(-c2cc3c(cn2)cnn3-c2cccc(N3CCCNCC3)n2)cn1 [Compound 152, 2-(4-(1-(6-(1,4-Diazepan-1-yl)pyridin-2-yl)-1H-pyrazolo[4,3-c]pyridin-6-yl)-1H-pyrazol-1-yl)ethanol] | 0.215 | 5.38 | 0.134 |  | 1500
c1cc(N2CCNCC2)nc(-n2ncc3cnc(-c4cncc(C5CC5)n4)cc32)c1 [Compound 165, 6-(6-cyclopropylpyrazin-2-yl)-1-(6-piperazin-1-yl-2-pyridyl)pyrazolo[4,3-c]pyridine] | 0.063 | 1.14 | 0.174 |  | 139
Cc1cncc(-c2cc3c(cn2)cnn3-c2cccc(N3CCNC(C)C3)n2)n1 (stereo not drawn) [Compound 169, 1-[6-(3-methylpiperazin-1-yl)-2-pyridyl]-6-(6-methylpyrazin-2-yl)pyrazolo[4,3-c]pyridine] | 0.228 | 1.79 | 0.164 |  | 457
CCc1cncc(-c2cc3c(cn2)cnn3-c2cccc(N3CCNCC(O)C3)n2)n1 (stereo not drawn) [Compound 172, 1-[6-[6-(6-ethylpyrazin-2-yl)pyrazolo[4,3-c]pyridin-1-yl]-2-pyridyl]-1 4-diazepan-6-ol] | 0.034 | 1.47 | 0.048 |  | 111
FC(F)(F)Cn1cc(-c2cc3c(cn2)cnn3-c2cncc(N3CCCNCC3)n2)cn1 [Compound 178, 1-(6-(1,4-Diazepan-1-yl)pyrazin-2-yl)-6-(1-(2,2,2-trifluoroethyl)-1H-pyrazol-4-yl)-1H-pyrazolo[4,3-c]pyridine] | 0.386 | 6.68 | 1.35 |  | 549
c1ccc(COc2cncc(-c3cc4c(cn3)cnn4-c3cccc(N4CCNCC4)n3)n2)cc1 [Compound 276, 6-(6-(benzyloxy)pyrazin-2-yl)-1-(6-(piperazin-1-yl)pyridin-2-yl)-1H-pyrazolo[4,3-c]pyridine] | 0.494 | 34.8 | 0.337 |  | 
OC[C@@H]1CCCN1c1cncc(-c2cc3c(cn2)cnn3-c2cccc(N3CCNCC3)n2)n1 [Compound 280, (S)-(1-(6-(1-(6-(piperazin-1-yl)pyridin-2-yl)-1H-pyrazolo[4,3-c]pyridin-6-yl)pyrazin-2-yl)pyrrolidin-2-yl)methanol dihydrochloride] | 0.051 | 18 | 0.101 |  | 
O=c1cncc(-c2cc3c(cn2)cnn3-c2cccc(N3CCNCC3)n2)[nH]1 [Compound 287, 6-[1-(6-piperazin-1-yl-2-pyridyl)pyrazolo[4,3-c]pyridin-6-yl]-1H-pyrazin-2-one] | 0.698 | 17.5 | 0.37 |  | 
Cc1cncc(-c2cc3c(cn2)cnn3-c2cccc(C3(O)CCCNC3)n2)n1 (stereo not drawn) [Compound 288, 3-(6-(6-(6-methylpyrazin-2-yl)-1H-pyrazolo[4,3-c]pyridin-1-yl)pyridin-2-yl)piperidin-3-ol] | 0.918 | 5.56 | 0.564 |  | 
Cn1ncc(-c2cc3c(cn2)cnn3-c2ccccc2F)c1Cl [Compound 309, 6-(5-chloro-1-methyl-1H-pyrazol-4-yl)-1-(2-fluorophenyl)-1H-pyrazolo[4,3-c]pyridine] | 487 | 2200 | 944 |  | 
Cc1cncc(-c2cc3c(cn2)cnn3-c2cccc(N3CCC(O)C(O)C3)n2)n1 (stereo not drawn) [Compound 312, 1-(6-(6-(6-methylpyrazin-2-yl)-1H-pyrazolo[4,3-c]pyridin-1-yl)pyridin-2-yl)piperidine-3,4-diol] | 0.644 | 3.58 | 0.481 |  | 
Cn1ncc(-c2cc3c(cn2)cnn3-c2ccccc2F)c1C1=CCNCC1 [Compound 314, 1-(2-fluorophenyl)-6-(1-methyl-5-(1,2,3,6-tetrahydropyridin-4-yl)-1H-pyrazol-4-yl)-1H-pyrazolo[4,3-c]pyridine] | 130 | 1100 | 166 |  | 
